Data from the NIST ThermoML archive (doi:10.1016/j.jct.2012.06.023).
Numbers after ± are expanded uncertainties.

Assay: xn = mol fraction of the nth substance listed
Conditions: for surface tension liquid-gas: Wilhelmy plate; for viscosity: 101 kPa, Liquid, Concentric cylinders viscometry

CCCCCO [pentan-1-ol] + CN(C)C=O
Conditions	surface tension liquid-gas, 298.15 K [mN/m]	surface tension liquid-gas, 303.15 K [mN/m]	surface tension liquid-gas, 308.15 K [mN/m]	surface tension liquid-gas, 313.15 K [mN/m]	viscosity, 298.15 K [mPa·s]	viscosity, 303.15 K [mPa·s]	viscosity, 308.15 K [mPa·s]	viscosity, 313.15 K [mPa·s]
x2 = 0	24.55 ± 0.06	23.6 ± 0.06	22.54 ± 0.06	21.94 ± 0.06	3.5 ± 0.018	3.051 ± 0.016	2.664 ± 0.015	2.335 ± 0.014
x2 = 0.0793	24.71 ± 0.06	23.72 ± 0.06	22.64 ± 0.05	22 ± 0.05	2.973 ± 0.016	2.585 ± 0.015	2.259 ± 0.013	1.98 ± 0.013
x2 = 0.2866	25.53 ± 0.05	24.43 ± 0.05	23.31 ± 0.05	22.57 ± 0.05	1.863 ± 0.012	1.608 ± 0.011	1.414 ± 0.011	1.24 ± 0.01
x2 = 0.4261	26.4 ± 0.05	25.25 ± 0.05	24.11 ± 0.05	23.3 ± 0.04	1.395 ± 0.011	1.205 ± 0.01	1.069 ± 0.0099	0.9427 ± 0.0095
x2 = 0.5048	27.02 ± 0.05	25.85 ± 0.05	24.69 ± 0.04	23.84 ± 0.04	1.241 ± 0.01	1.076 ± 0.0099	0.962 ± 0.0096	0.8525 ± 0.0093
x2 = 0.6254	28.21 ± 0.05	27.01 ± 0.04	25.84 ± 0.04	24.94 ± 0.04	1.069 ± 0.0098	0.939 ± 0.0095	0.8498 ± 0.0093	0.7611 ± 0.0091
x2 = 0.6638	28.68 ± 0.05	27.48 ± 0.04	26.31 ± 0.04	25.4 ± 0.04	1.021 ± 0.0097	0.9012 ± 0.0094	0.8193 ± 0.0092	0.7366 ± 0.0091
x2 = 0.7952	30.84 ± 0.04	29.66 ± 0.04	28.51 ± 0.04	27.56 ± 0.04	0.9068 ± 0.0094	0.8182 ± 0.0092	0.7558 ± 0.0091	0.6895 ± 0.009
x2 = 0.8706	32.34 ± 0.04	31.19 ± 0.04	30.05 ± 0.04	29.08 ± 0.04	0.8572 ± 0.0093	0.797 ± 0.0091	0.7501 ± 0.0091	0.6882 ± 0.0089
x2 = 0.9363	33.8 ± 0.04	32.67 ± 0.04	31.56 ± 0.04	30.58 ± 0.04	0.8373 ± 0.0092	0.783 ± 0.0091	0.7386 ± 0.009	0.6836 ± 0.0089
